We go through 41 compounds from patent US12448388B2, “PRMT5 inhibitors and uses thereof” (Gilead Sciences, Inc., priority 2023, dated 2025).

Each structure is given as a SMILES string. Read-outs that look alike come from different tables or passages of the source. A value given as a limit tells only on which side of the number the result lay.

The experiment relates to HCT116 MTAP-deleted cell lines. Briefly: Cell viability assay (CellTiter-Glo, 7 days), HCT116 MTAP-deleted. Particulars: Homo sapiens, HCT-116, HCT116 MTAP-deleted, class symbols, read-out: CC50. Format: cell-based. Summed up: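 First, compounds are serially diluted in DMSO and dispensed into plates, which are frozen until seeding. Next, cells are added and incubated 7 days at 37 °C, 5% CO2, 90% humidity. Finally, CellTiter-Glo reagent is added and luminescence is measured to derive CC50.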
A general note: In ATP-based viability assays light output follows the ATP content of the culture.

In general, CC50 refers to the concentration that lowers cell viability or growth by half. For `CN(C(=O)c1cc2c(cc1F)nc(N)c1cncn12)[C@@H]1COc2cc([C@@H]3C[C@H]3C#N)ccc21` (single isomer, unassigned) [Ff-480], the CC50 (cell viability assay) is < 100 nM.

Consider `CN(C(=O)c1cc2c(cc1F)nc(N)c1cncn12)[C@@H]1COc2cc([C@H]3C[C@@H]3C#N)ccc21` (single isomer, unassigned) [Ff-481], for which the CC50 (cell viability assay) is < 100 nM.

Take `C[C@@H]1CC[C@@H]2Oc3cc(OC(F)(F)F)ccc3[C@@H]2N1C(=O)c1cc2c(cc1F)nc(N)c1cncn12` (single isomer, unassigned) [Ff-491]: for the setting “cell viability assay”, the CC50 is < 100 nM.

Consider `CN(C(=O)c1cc2c(cc1F)nc(N)c1cnc(Br)n12)[C@@H]1COc2cc(C(F)(F)F)ccc21` (single isomer, unassigned) [Ff-493], for which the CC50 (cell viability assay) is 100 to 1000 nM.

As to `CN(C(=O)c1cc2c(cc1F)nc(N)c1c(Br)ncn12)[C@@H]1COc2cc(C(F)(F)F)ccc21` (single isomer, unassigned) [Ff-494], the CC50 (cell viability assay) is 100 to 1000 nM.

For the compound `Nc1nc2cc(F)c(C(=O)N3CCC[C@@H]4Oc5cc(C(F)(F)F)ccc5[C@@H]43)cc2n2c(Br)ncc12` (single isomer, unassigned) [Ff-495], the cytotoxic concentration (CC50) (cell viability assay) is 100 to 1000 nM.

Take `C[C@H]1CN(C(=O)c2cc3c(cc2F)nc(N)c2cnc(Br)n23)[C@H]2c3ccc(C(F)(F)F)cc3C[C@H]2O1` (single isomer, unassigned) [Ff-496]: the CC50 (cell viability assay) fell in the range of 100 to 1000 nM.

For `CN(C(=O)c1cc2c(cc1F)nc(N)c1cncn12)[C@@H]1COc2cc([C@@H]3C[C@H]3C(F)F)ccc21` (single isomer, unassigned) [Ff-504], the CC50 (cell viability assay) was < 100 nM.

Turning to `CN(C(=O)c1cc2c(cc1F)nc(N)c1cncn12)[C@@H]1COc2cc([C@H]3C[C@@H]3C(F)F)ccc21` (single isomer, unassigned) [Ff-505], the CC50 (cell viability assay) is < 100 nM.

`Nc1nc2cc(F)c(C(=O)N3CCOC[C@@H]3c3ccc(C(F)(F)F)cn3)cc2n2cncc12` (single isomer, unassigned) [Ff-547]: where the note is “cell viability assay”, the CC50 is < 100 nM.

For `Nc1nc2cc(F)c(C(=O)N3CCOC[C@@H]3c3ccc(OC(F)(F)F)cc3)cc2n2cncc12` (single isomer, unassigned) [Ff-555], the CC50 (cell viability assay) is < 100 nM.

With `Nc1nc2cc(F)c(C(=O)N3CCOC[C@H]3c3ccc(OC(F)(F)F)cc3)cc2n2cncc12` (single isomer, unassigned) [Ff-556], the CC50 (cell viability assay) lay in the range of 100 to 1000 nM.

`CN(C(=O)c1cc2c(cc1F)nc(N)c1cncn12)[C@@H]1COc2cc(OC(F)(F)F)ccc21` (single isomer, unassigned) [Ff-557]: the CC50 (cell viability assay) is < 100 nM.

Turning to `CN(C(=O)c1cc2c(cc1F)nc(N)c1cncn12)[C@H]1COc2cc(OC(F)(F)F)ccc21` (single isomer, unassigned) [Ff-558], where the note is “cell viability assay”, the CC50 was in the range of 100 to 1000 nM.

In the case of `CN(C(=O)c1cc2c(cc1F)nc(N)c1cncn12)[C@@H]1COc2cc(OC(F)F)ccc21` (single isomer, unassigned) [Ff-559], the CC50 (cell viability assay) was < 100 nM.

Turning to `CN(C(=O)c1cc2c(cc1F)nc(N)c1cncn12)[C@@H]1COc2cc(Cl)c(F)cc21` (single isomer, unassigned) [Ff-597], the CC50 (cell viability assay) was < 100 nM.

Turning to `CN(C(=O)c1cc2c(cc1F)nc(N)c1cncn12)[C@@H]1COc2cc(C(F)(F)F)cc(F)c21` (single isomer, unassigned) [Ff-601], where the note is “cell viability assay”, the CC50 is < 100 nM.

Turning to `CN(C(=O)c1cc2c(cc1F)nc(N)c1cncn12)[C@@H]1COc2cc(Cl)c(Cl)cc21` (single isomer, unassigned) [Ff-605], under “cell viability assay”, the CC50 was < 100 nM.

On to `CN(C(=O)c1cc2c(cc1F)nc(N)c1cncn12)[C@@H]1COc2c1ccc(Cl)c2Cl` (single isomer, unassigned) [Ff-606], for which the CC50 (cell viability assay) was 100 to 1000 nM.

On to `Cc1ncn2c1c(N)nc1cnc(C(=O)N3[C@H](C)CC[C@@H]4Oc5cc(C(F)(F)F)ccc5[C@@H]43)cc12` (single isomer, unassigned) [Ff-611], for which the CC50 (cell viability assay) is < 100 nM.

For the compound `Cc1ncn2c1c(N)nc1cnc(C(=O)N3[C@@H]4c5ccc(C(F)(F)F)cc5O[C@@H]4CC[C@@H]3C)cc12` (single isomer, unassigned) [Ff-612], the CC50 (cell viability assay) is 100 to 1000 nM.

As for `C[C@H]1CN(C(=O)c2cc3c(cc2F)nc(N)c2cncn23)[C@H]2Cc3ccccc3[C@H]2O1` (single isomer, unassigned) [Ff-623], the CC50 (cell viability assay) is 100 to 1000 nM.

In the case of `C[C@@H]1CN(C(=O)c2ccc3nc(N)c4cncn4c3c2)[C@H]2c3cc(F)c(OC(F)(F)F)cc3C[C@H]2O1` (single isomer, unassigned) [Ff-628], the cytotoxic concentration (CC50) (cell viability assay) was < 100 nM.

Regarding `[2H]C([2H])([2H])[C@@H]1CN(C(=O)c2cc3c(cc2F)nc(N)c2cncn23)[C@H]2c3ccc(C(F)(F)F)cc3C[C@H]2O1` (single isomer, unassigned) [Ff-638], the CC50 (cell viability assay) is < 100 nM.

On to `[2H]C([2H])([2H])[C@H]1CN(C(=O)c2cc3c(cc2F)nc(N)c2cncn23)[C@H]2c3ccc(C(F)(F)F)cc3C[C@H]2O1` (single isomer, unassigned) [Ff-639], for which, under “cell viability assay”, the CC50 was < 100 nM.

With `Nc1nc2cc(F)c(C(=O)N3CCC[C@@H]4Oc5cc(C(F)(F)F)ccc5[C@@H]43)cc2n2c(Cl)ncc12` (single isomer, unassigned) [Ff-646], the CC50 (cell viability assay) is < 100 nM.

Consider `Nc1nc2cc(F)c(C(=O)N3CCC[C@@H]4Oc5cc(C(F)(F)F)ccc5[C@@H]43)cc2n2cnc(Cl)c12` (single isomer, unassigned) [Ff-647], for which, for the setting “cell viability assay”, the CC50 is < 100 nM.

`C[C@@H]1CN(C(=O)c2cc3c(cc2F)nc(N)c2cncn23)[C@@H](c2cccc(C(F)F)n2)CO1` (single isomer, unassigned) [Ff-668]: the CC50 (cell viability assay) fell in the range of 100 to 1000 nM.

`Cc1ncn2c1c(N)nc1ccc(C(=O)N3C[C@@H](C)O[C@@H]4Cc5cc(OC(F)(F)F)ccc5[C@@H]43)cc12` (single isomer, unassigned) [Fg-22]: the CC50 (cell viability assay) was < 100 nM.

For the compound `Cc1ncn2c1c(N)nc1ccc(C(=O)N3C[C@H](C)O[C@@H]4Cc5cc(OC(F)(F)F)ccc5[C@@H]43)cc12` (single isomer, unassigned) [Fg-23], the CC50 (cell viability assay) is < 100 nM.

`CN(C(=O)c1cc2c(cc1F)nc(N)c1cncn12)[C@@H]1COc2ccc([C@H]3C[C@@H]3C#N)cc21` (stereo in doubt) [Ff-263, Trans-4-amino-N-((3S)-5-(2-cyanocyclopropyl)-2,3-dihydrobenzofuran-3-yl)-7-fluoro-N-methylimidazo[1,5-a]quinoxaline-8-carboxamide]: the 50% cytotoxic concentration (CC50) (cell viability) was 100 to 1000 nM.

For the compound `CN(C(=O)C1CC1)N(Cc1cc(F)c(F)cc1F)C(=O)c1cc2c(cc1F)nc(N)c1cncn12` [Fa-8, 4-amino-N′-(cyclopropanecarbonyl)-7-fluoro-N′-methyl-N-(2,4,5-trifluorobenzyl)imidazo[1,5-a]quinoxaline-8-carbohydrazide], the cytotoxic concentration (CC50) (cell viability) was < 100 nM.

Turning to `CC(=O)N(C)N(Cc1ccc(C(F)(F)F)cc1Cl)C(=O)c1cc2c(cc1F)nc(N)c1cncn12` [Fb-1, N′-acetyl-4-amino-N-(2-chloro-4-(trifluoromethyl)benzyl)-7-fluoro-N′-methylimidazo[1,5-a]quinoxaline-8-carbohydrazide], the 50% cytotoxic concentration (CC50) (cell viability) was < 100 nM.

Take `Cn1c(CN(C(=O)c2cc3c(cc2F)nc(N)c2cncn23)N2CCCC2=O)nc2cc(C(F)(F)F)ccc21` [Fb-7, 4-amino-7-fluoro-N-((1-methyl-5-(trifluoromethyl)-1H-benzo[d]imidazol-2-yl)methyl)-N-(2-oxopyrrolidin-1-yl)imidazo[1,5-a]quinoxaline-8-carboxamide]: the CC50 (cell viability) was < 100 nM.

`CN(C(=O)c1cc2c(cc1F)nc(N)c1cncn12)[C@@H](c1ccc(C(F)(F)F)cc1)C(F)F` [Fb-9, (S)-4-amino-N-(2,2-difluoro-1-(4-(trifluoromethyl)phenyl)ethyl)-7-fluoro-N-methylimidazo[1,5-a]quinoxaline-8-carboxamide]: for the setting “cell viability”, the CC50 is < 100 nM.

Consider `CN(C(=O)c1cc2c(cc1F)nc(N)c1cncn12)[C@@H](c1ccc(OC(F)F)cc1F)C(F)F` [Fb-10, (S)-4-amino-N-(1-(4-(difluoromethoxy)-2-fluorophenyl)-2,2-difluoroethyl)-7-fluoro-N-methylimidazo[1,5-a]quinoxaline-8-carboxamide], for which, for the setting “cell viability”, the CC50 was < 100 nM.

As to `CN(C(=O)c1cc2c(cc1F)nc(N)c1cncn12)[C@@H](c1ccc(OC(F)(F)F)cc1F)C(F)F` [Fb-11, (S)-4-amino-N-(2,2-difluoro-1-(2-fluoro-4-(trifluoromethoxy)phenyl)ethyl)-7-fluoro-N-methylimidazo[1,5-a]quinoxaline-8-carboxamide], the CC50 (cell viability) is < 100 nM.

As to `CN(C(=O)c1cc2c(cn1)nc(N)c1cncn12)[C@@H](c1ccc(OC(F)(F)F)cc1F)C(F)F` [Fb-12, (S)-4-amino-N-(2,2-difluoro-1-(2-fluoro-4-(trifluoromethoxy)phenyl)ethyl)-N-methylimidazo[1,5-a]pyrido[3,4-e]pyrazine-8-carboxamide], the CC50 (cell viability) was 100 to 1000 nM.

For `CN(C(=O)c1cc2c(cc1F)nc(N)c1cncn12)[C@@H](c1ccc(OC(F)(F)F)cc1)C(F)F` [Fb-13, (S)-4-amino-N-(2,2-difluoro-1-(4-(trifluoromethoxy)phenyl)ethyl)-7-fluoro-N-methylimidazo[1,5-a]quinoxaline-8-carboxamide], under “cell viability”, the CC50 is < 100 nM.

For `CN(C(=O)c1ccc2nc(N)c3cncn3c2c1)[C@@H](c1ccc(C(F)(F)F)cc1F)C(F)F` [Fb-14, (S)-4-amino-N-(2,2-difluoro-1-(2-fluoro-4-(trifluoromethyl)phenyl)ethyl)-N-methylimidazo[1,5-a]quinoxaline-8-carboxamide], the CC50 (cell viability) was < 100 nM.

For `CCN(C(=O)c1ccc2nc(N)c3cncn3c2c1)[C@@H](c1ccc(C(F)(F)F)cc1F)C(F)F` [Fb-15, (S)-4-amino-N-(2,2-difluoro-1-(2-fluoro-4-(trifluoromethyl)phenyl)ethyl)-N-ethylimidazo[1,5-a]quinoxaline-8-carboxamide], where the note is “cell viability”, the CC50 was < 100 nM.
